Test results reported in paper PMC6136360, “Novel group of tyrosyl-DNA-phosphodiesterase 1 inhibitors based on disaccharide nucleosides as drug prototypes for anti-cancer therapy” (Journal of Enzyme Inhibition and Medicinal Chemistry, 2018).

Tests used:
TDP1 [1] = target: T1, TDP1 (Homo sapiens, UniProt Q9NUW8); assay: Real-time fluorescence detection of TDP1 activity, single-stranded FAM/BHQ biosensor; type: biochemical; conditions: for Inhibitory effect on TDP1 activity (in words): single-stranded fluorescent biosensor, primary screening
T1 construct: made in house; host or cells: E. coli
Procedure: (§1) Conditions and details for our real-time detection of TDP1 activity using the single-stranded and hairpin fluorescent biosensors were reported in our previous work[47]. Briefly, the approach consists in fluorescence intensity measurement of the reaction of quencher removal from the fluorophore-quencher coupled DNA-oligonucleotide catalysed by TDP1 in the presence of inhibitor and in the absence of it (the control samples contained 1% DMSO). Reaction mixtures (200 µl) contained TDP1 buffer (50 mM Tris-HCl, pH 8.0, 50 mM NaCl, 7 mM β-mercaptoethanol), oligonucleotide (50 nM substrate of TDP1), testable inhibitor and purified TDP1 (1.5 nM). The reactions were incubated at a constant temperature of 26 °C in a POLARstar OPTIMA fluorimeter, BMG LABTECH, GmbH, to measure fluorescence every 55 s (Ex485/Em520 nm) during the linear phase (here data from 0 to 8 min). The average values of half maximal inhibitory concentration (IC50) were determined using an eleven-point concentration response curve in three independent experiments and calculated using MARS Data Analysis 2.0 (BMG LABTECH).
To discover inhibitors of TDP1 we recently developed original single-stranded and hairpin fluorophore–quencher coupled DNA-biosensors for real-time measurement of TDP1 cleavage activity. The single-stranded substrate is a 16-mer oligonucleotide containing both 5′-FAM fluorophore donor and a quenching 3′-BHQ moiety (Figure 1(A)). When the quencher is removed by TDP1, the fluorescence intensity increases and can be measured by fluorimeter (TDP1 catalysed reaction on biosensor is shown in Figure 3(A). Fluorescence intensity declines in the presence of inhibitor, the resulting curves of the dependence of TDP1 residual activity as a function of the concentration of inhibitors were obtained using 4-parameter logistic regression fit, which was used to calculate IC50 values[47]^,[58].
For primary screening, the effect of a large group of disaccharide nucleosides and their hydrophobic derivatives on human recombinant TDP1 activity has been evaluated by fluorescent method on a single-stranded substrate described above.

PARP1 = tested on: PARP1; parameters: method as in PMID 24079274; conditions: cited from earlier work
TDP1 [2] = target: T1, TDP1; assay: Steady-state kinetic analysis of TDP1 reaction, single-stranded substrate; type: biochemical
Procedure: (§2) To determine the kinetic parameters: apparent maximum rate of enzymatic reaction (Vmax), Michaelis constant (KM), constant of inhibition (KI), and possible inhibition mechanism, steady-state kinetic experiments were carried out at five fixed concentrations of substrate with variation of inhibitor concentrations. The standard reaction mixtures (200 μl) contained 50 nM, 100 nM, 200 nM, 500 nM or 1000 nM substrate, testable inhibitor, 1.5 nM recombinant human TDP1 and reaction buffer components (50 mM Tris-HCl, pH 8.0, 50 mM NaCl, 7 mM β-mercaptoethanol). After addition of the enzyme, the reaction mixtures were incubated at a constant temperature of 26 °C and measured in a POLARstar OPTIMA fluorimeter, BMG LABTECH, GmbH, to measure fluorescence every 55 s (Ex485/Em520 nm) during the linear phase (data from 0 to 8 min). The initial data (kinetic curves) were obtained in three independent experiments and statistically processed in software OriginPro 8.6.0.
Vmax and KM decrease proportionally (Figure 6(A,B)), which corresponds to the uncompetitive type of inhibition, according to the general equation of the rate of product formation in the Michaelis–Menten kinetics.
(§3) Values of the inhibition constant (KI) were determined using Cornish–Bowden method. Similar experiments were performed for all seven tested inhibitors on two types of DNA substrates, and the results are shown in Table 4.

TDP1 [3] = target: T1, TDP1; assay: Steady-state kinetic analysis of TDP1 reaction, double-stranded (hairpin) substrate; type: biochemical
Procedure: as §2, §3

[4] = target: T2, SCAN1 (mutant form of TDP1 with H493R substitution) (Homo sapiens, UniProt Q9NUW8, H493R); assay: Fluorescence real-time assay on mutant TDP1 (SCAN1), single-stranded oligonucleotide; type: biochemical
T2 construct: made in house; host or cells: E. coli
From the text: The recombinant tyrosyl-DNA phosphodiesterase 1 and the mutant form of TDP1 with substitution (H493R) were expressed in the E. coli system (plasmids pET16B-TDP1 and pET16B-SCAN1 were provided by Dr. K.W. Caldecott, University of Sussex, United Kingdom and by Dr. S. El-Khamisy, University of Sheffield, United Kingdom) and purified according to the previously described technique.
as §1
The IC50 values obtained by the fluorescence real-time assay on a single-stranded oligonucleotide (section 3.1) were higher than 100 μM.

[5] = tested on: A-549 cell line (adenocarcinomic human alveolar basal epithelial cells); assay: MTT test, cytotoxicity and combination with topotecan, A-549; type: cell-based; conditions: A-549 cells
Procedure: (§4) Tumour cell line A549 (adenocarcinomic human alveolar basal epithelial cells) and noncancerous cell line WI-38 (fibroblasts derived from lung tissue of a 3 months gestation […] fetus) were used in cell-based experiments to determine the cytotoxicity of inhibitors and their effect on antitumour drug topotecan using standard MTT test[48]. Cells were incubated in Iscove’s Modified Dulbecco’s Medium (IMDM) supplemented with 10% fetal bovine serum and 40 µg/ml gentamicin, 10 U/ml penicillin, […], 0.25 µg/ml amphotericin at 37 °C and 5% CO2 for 24 h in a CO2 incubator; the optical density of the final solution was measured in the wells of the microplate at 570 nm and 620 nm wavelengths using a MultiScan FC (Thermo Scientific) microplate reader.
(§5) To study the effect of inhibitors on the cytotoxic effect of a well-known antitumour drug, the topotecan of the manufacturer “ACTAVIS GROUP PTC ehf.” was used. First of all, the 50% cytotoxic concentration (CC50) for topotecan and each inhibitor were determined to produce a defined single-agent effect. Second, three independent MTT-tests were performed with each inhibitor in combination with topotecan. Then, the synergistic coefficient (SC) was calculated according to the following formula (2)[49]: (2) SC= CC50 tpc,(+I)/CC50 tpc+CC50 I, (+tpc)/CC50 I,
(§6) CC50 tpc,(+I) and CC50 I,(+tpc) are the concentrations of topotecan and inhibitor used in combination to achieve 50% drug effect. CC50 tpc and CC50 I are the concentrations for single agents to achieve the same effect. SC values of less than, equal to, or more than 1 indicates synergy, additivity, and antagonism, respectively. The results were calculated and statistically processed in Microsoft Excel.

[6] = tested on: WI-38 cell line (noncancerous fibroblasts derived from lung tissue); assay: MTT test, cytotoxicity and combination with topotecan, WI-38; type: cell-based, human; conditions: WI-38 non-cancerous cell line
Procedure: as §4, §5, §6

TDP1 [7] = target: T1, TDP1; assay: Fluorescence anisotropy assay of TDP1-DNA substrate complex; type: binding; conditions: 3 nM single-strand oligonucleotide without quencher, 50 nM TDP1
Procedure: Fluorescence anisotropy was measured by using a fluorescent single-strand DNA-oligonucleotide (3 nM) without quencher at the 3′-end in the presence of the inhibitor in different concentrations (Fluorescein control, CFlu = 10^−9 M). Reaction mixtures (200 µl) contained TDP1 buffer (50 mM Tris-HCl, pH 8.0, 50 mM NaCl, 7 mM β-mercaptoethanol), a single-strand DNA-oligonucleotide without quencher (3 nM substrate of TDP1), a testable inhibitor and the purified TDP1 (50 nM). The reactions were incubated at a constant temperature of 26 °C in a POLARstar OPTIMA fluorimeter, BMG LABTECH, GmbH, to measure fluorescence anisotropy every 55 s (Ex482/Em530 nm) during the linear phase (from 0 to 8 min) in two independent experiments.
Fluorescence anisotropy (r) was calculated by using the Equation (1): (1) r = (III–I⊥)/(III+ 2I⊥)
The dependence of the anisotropy on the concentration of the inhibitor was determined using a six-point response curve in two independent experiments and calculated using MARS Data Analysis 2.0 (BMG LABTECH).
To obtain some information about interaction of disaccharide nucleosides with TDP1, anisotropy of the fluorescent DNA substrate was measured. We used single-stranded oligonucleotide without a quencher at the 3′-end in the presence of testable inhibitors at different concentrations.

[8] = Cornish-Bowden method, read-out: Inhibition constant, KI

T1 sequence (Q9NUW8 whole entry): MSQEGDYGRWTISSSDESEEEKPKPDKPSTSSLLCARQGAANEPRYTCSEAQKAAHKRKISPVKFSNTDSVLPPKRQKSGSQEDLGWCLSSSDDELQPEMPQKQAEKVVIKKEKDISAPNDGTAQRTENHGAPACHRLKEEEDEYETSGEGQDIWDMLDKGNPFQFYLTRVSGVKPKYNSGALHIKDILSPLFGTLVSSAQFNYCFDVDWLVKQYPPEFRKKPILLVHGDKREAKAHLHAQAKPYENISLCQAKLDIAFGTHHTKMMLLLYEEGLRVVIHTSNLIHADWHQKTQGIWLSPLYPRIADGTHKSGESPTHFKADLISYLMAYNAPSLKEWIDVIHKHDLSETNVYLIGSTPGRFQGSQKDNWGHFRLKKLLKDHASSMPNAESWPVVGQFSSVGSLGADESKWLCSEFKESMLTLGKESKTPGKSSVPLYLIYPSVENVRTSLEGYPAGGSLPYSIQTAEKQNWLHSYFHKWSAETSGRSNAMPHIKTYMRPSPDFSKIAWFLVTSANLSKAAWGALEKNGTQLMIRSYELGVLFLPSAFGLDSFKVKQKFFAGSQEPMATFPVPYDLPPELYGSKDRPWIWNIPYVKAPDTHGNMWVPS
T2 sequence (Q9NUW8 whole entry H493R): as the sequence (Q9NUW8 whole entry) above, with H493R counted along it

IC50 (TDP1 [1]; single-stranded fluorescent biosensor 50 nM, TDP1 1.5 nM, 26 °C, read-out: IC50 (half-maximal inhibitory concentration) of TDP1 activity) [nM]	Type of inhibition (TDP1 [2])	Ki (TDP1 [2]; [8]) [nM]	Type of inhibition (TDP1 [3])	Ki (TDP1 [3]; [8]) [nM]	IC50 [4] [nM]	Change of fluorescence anisotropy with inhibitor concentration (TDP1 [7])	SMILES	Inhibitory effect on TDP1 activity (in words) (TDP1 [1])	IC50 (PARP1) [nM]	Synergistic coefficient (SC) with topotecan ([5]; MTT, inhibitor in combination with topotecan, SC < 1 indicates synergy)	Effect on cytotoxic effect of topotecan (in words) ([5]; non-toxic inhibitor concentrations)	Synergy with topotecan (in words) [6]
–	–	–	–	–	–	–	Cc1cn([C@H]2C[C@H](O[C@@H](C=O)O[C@@H](C=O)CO)[C@@H](CO)O2)c(=O)[nH]c1=O [Compound 29]	did not lead to the noticeable inhibitory activity	25000 ± 3000	–	–	–
–	–	–	–	–	–	–	Cc1cn([C@H]2C[C@H](O[C@@H]3O[C@H](CO)[C@@H](O)[C@H]3O)[C@@H](CO)O2)c(=O)[nH]c1=O [Compound 24]	not inhibited	38000 ± 4000	–	–	–
2800 ± 200	Uncompetitive	600 ± 300	Uncompetitive	2100 ± 500	> 100000	anisotropy remained unchanged	O=C(OC[C@H]1O[C@@H](O[C@H]2C[C@H](n3cc(I)c(=O)[nH]c3=O)O[C@@H]2CO)[C@H](OC(=O)c2ccccc2)[C@@H]1OC(=O)c1ccccc1)c1ccccc1 [Compound 41]	–	–	less than or equal to 0.7	significant increase of cytotoxic effect of topotecan	demonstrated synergy with topotecan
